Paper PMC8153121, “N-Alkylation of Anthracycline Antibiotics by Natural Sesquiterpene Lactones as a Way to Obtain Antitumor Agents with Reduced Side Effects” (Biomedicines, 2021)
Read-outs that look alike come from different tables or passages of the source.

Experiments:
A549 (lung carcinoma) = test: MTT cell viability test, A549; type: cell-based, Human; conditions: read-out: IC50, A549
Protocol: (§1) Human cell cultures of tumor origin (A549 (lung carcinoma), HCT116 (colon adenocarcinoma), MCF7 (breast cancer), RD (embryonic rhabdomyosarcoma)), and the line of non-transformed cells HEK293 (embryonic kidney) provided by the Laboratory of Tumor Cell Genetics at the N.N. Blokhin Russian Cancer Research Institute, as well as by the Institute of Cytology of the Russian Academy of Sciences, were grown in DMEM (Gibco, Scotland, UK) and MEM (Gibco, Scotland, UK) containing fetal calf serum (10% by volume) (ThermoFisher Scientific, Paisley, UK), L-glutamine (2 mM) (Gibco, Scotland, UK), and penicillin-streptomycin (1% by volume) (PanEco, Moscow, Russia).
(§2) Cellular viability was determined by the MTT test. […] After 24 h of incubation, various concentrations of the test compounds dissolved in DMSO (≤1%) were added to the cell cultures, the solvent was added to the control wells in an equal volume, and then the cells were cultured under the same conditions for 72 h. After the incubation time, MTT (3-(4,5-dimethylthiazol-2-yl)-2,5-diphenyltetrazolium bromide, 5 mg/mL) was added to each well, and the plates were further incubated for 2 h (until a characteristic color appeared). Then, the formazan granules were dissolved in DMSO.
(§3) Using a plate analyzer (Cytation3, BioTech Instruments Inc., USA), the optical density was determined at λ = 530 nm.

[1] = test system: HCT116 (colon adenocarcinoma); test: MTT cell viability test, HCT116; type: cell-based, Human; conditions: read-out: IC50, HCT116
Protocol: as §1, §2, §3

MCF7 (breast cancer) = test: MTT cell viability test, MCF7; type: cell-based, Human; conditions: read-out: IC50, MCF7
Protocol: as §1, §2, §3

[2] = test system: RD (embryonic rhabdomyosarcoma); test: MTT cell viability test, RD; type: cell-based, Human; conditions: 72 h, read-out: IC50, RD
Protocol: as §1, §2, §3

[3] = test system: HEK293 (embryonic kidney); test: MTT cell viability test, non-transformed HEK293; type: cell-based, Human; conditions: read-out: IC50, HEK293
Protocol: as §1, §2, §3

[4] = biological target: T1, complex II of the electron transport chain (Rattus norvegicus, UniProt P21913+Q641Z9+Q6PCT8+Q920L2); test: Respiratory chain complex II, OCR of isolated rat heart mitochondria (Seahorse); type: biochemical; conditions: isolated rat heart mitochondria 10 μg/well, compounds at 30 μM
T1 construct: Rat heart mitochondria were isolated by differential centrifugation; from tissue; host or cells: rat heart mitochondria
T1 sequence (Q920L2 35-656): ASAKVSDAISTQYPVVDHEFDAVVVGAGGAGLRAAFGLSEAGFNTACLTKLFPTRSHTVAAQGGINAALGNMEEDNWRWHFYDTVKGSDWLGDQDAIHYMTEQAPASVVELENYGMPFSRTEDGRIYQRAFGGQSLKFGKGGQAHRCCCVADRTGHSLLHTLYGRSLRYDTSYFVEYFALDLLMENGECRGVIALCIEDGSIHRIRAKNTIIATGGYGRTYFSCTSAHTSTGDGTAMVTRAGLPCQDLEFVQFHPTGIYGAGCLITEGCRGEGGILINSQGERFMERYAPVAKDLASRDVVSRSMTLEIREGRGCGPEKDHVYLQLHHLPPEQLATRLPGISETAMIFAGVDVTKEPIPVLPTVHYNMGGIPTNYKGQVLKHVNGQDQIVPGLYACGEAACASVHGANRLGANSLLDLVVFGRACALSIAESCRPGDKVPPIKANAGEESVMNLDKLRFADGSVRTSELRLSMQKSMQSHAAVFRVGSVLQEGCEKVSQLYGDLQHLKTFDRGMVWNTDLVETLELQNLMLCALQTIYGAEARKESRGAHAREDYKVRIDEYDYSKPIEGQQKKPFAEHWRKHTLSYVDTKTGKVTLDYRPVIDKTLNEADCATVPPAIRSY
T1 sequence (P21913 31-282): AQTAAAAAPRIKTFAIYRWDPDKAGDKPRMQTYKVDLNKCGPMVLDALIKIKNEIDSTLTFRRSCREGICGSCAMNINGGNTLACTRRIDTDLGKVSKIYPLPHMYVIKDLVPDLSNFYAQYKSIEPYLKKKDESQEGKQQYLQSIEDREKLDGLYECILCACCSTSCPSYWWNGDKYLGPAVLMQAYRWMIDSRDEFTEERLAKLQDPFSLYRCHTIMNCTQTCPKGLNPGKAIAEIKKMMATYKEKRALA
T1 sequence (Q641Z9 30-169 limits assumed): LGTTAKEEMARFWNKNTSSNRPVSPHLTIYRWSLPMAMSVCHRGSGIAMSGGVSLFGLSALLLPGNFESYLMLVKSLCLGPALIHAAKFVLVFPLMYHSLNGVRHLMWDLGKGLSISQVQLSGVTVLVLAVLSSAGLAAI
T1 sequence (Q6PCT8 57-159): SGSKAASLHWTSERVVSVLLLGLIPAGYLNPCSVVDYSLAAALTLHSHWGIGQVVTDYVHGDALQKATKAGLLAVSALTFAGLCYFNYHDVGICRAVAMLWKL
Protocol: (§4) Rat heart mitochondria were isolated by differential centrifugation using ice-cold buffer containing KCl (120 mM) and HEPES (20 mM), pH = 7.4, and a trypsin inhibitor. The mitochondrial yield ranged from 5 to 10 mg/mL of protein in the heart sediment. Mitochondria were stored in plastic containers at 4 °C.
(§5) The effect of the compounds on the functioning of the electron transport chain complexes was carried out using an Agilent Seahorse XF96e Analyzer (Seahorse Bioscience, Billerica, MA, USA) according to their ability to change the rate of oxygen uptake by isolated rat heart mitochondria (10 μg/well). The following modulators were used: activators of complex I of the electron transport chain, NADH dehydrogenase,—glutamate/malate; rotenone (2 μM) (Sigma Aldrich, Saint Louis, USA)—a tissue respiration blocker that stops the transfer of electrons from the reduced form of NADH to cytochrome b, was used as complex I inhibitor; potassium succinate ([…]) (Dia-M, Moscow, Russia), which is a substrate of complex II of the electron transport chain, made it possible to assess mitochondrial respiration mediated by succinate dehydrogenase; complex III (ubiquinol-cytochrome c-oxidoreductase) inhibitor—a blocker of cellular respiration antimycin A (Sigma Aldrich, Saint Louis, USA), as well as ascorbate/TMPD (0.5 μM) (Sigma Aldrich, Saint Louis, USA), allowed us to evaluate the cytochrome-c-oxidase mediated respiration of organelles.

[5] = biological target: T2, cytochrome-c-oxidase complex of the mitochondrial respiratory chain (IV) (Rattus norvegicus, UniProt P00406+P05503+P05505); test: Respiratory chain complex IV, OCR of isolated rat heart mitochondria (Seahorse); type: biochemical; conditions: isolated rat heart mitochondria 10 μg/well, compounds at 30 μM
T2 construct: Rat heart mitochondria were isolated by differential centrifugation; from tissue; host or cells: rat heart mitochondria
T2 sequence (P00406 whole entry, other chains not shown): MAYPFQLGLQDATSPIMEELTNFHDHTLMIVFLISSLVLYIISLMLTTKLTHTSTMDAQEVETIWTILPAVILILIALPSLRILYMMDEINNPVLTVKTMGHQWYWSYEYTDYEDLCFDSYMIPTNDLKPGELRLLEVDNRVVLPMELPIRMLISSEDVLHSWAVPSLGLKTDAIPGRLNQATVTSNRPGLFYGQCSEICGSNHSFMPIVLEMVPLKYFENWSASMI
T2 sequence (P05505 whole entry, other chains not shown): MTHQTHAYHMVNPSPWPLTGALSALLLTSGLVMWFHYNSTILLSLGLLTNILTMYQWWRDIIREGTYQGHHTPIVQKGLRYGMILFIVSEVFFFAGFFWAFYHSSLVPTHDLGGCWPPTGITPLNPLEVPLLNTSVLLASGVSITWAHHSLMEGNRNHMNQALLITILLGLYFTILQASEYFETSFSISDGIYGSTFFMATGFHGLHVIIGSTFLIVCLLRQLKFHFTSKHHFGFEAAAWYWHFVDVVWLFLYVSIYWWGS
Protocol: as §4, §5

rat heart mitochondria = test: Mitochondrial swelling; type: biochemical; conditions: rat heart mitochondria 0.5 mg/mL, compounds at 100 μM, Ca2+ 25 μM
Protocol: as §4
Mitochondrial swelling was recorded by the light transmission of the rat heart mitochondrial suspension at λ = 540 nm using a Victor 3 plate analyzer (Perkin Elmer, Germany). The swelling rate was estimated as △A540/min and was calculated as the tangent of the angle of the steepest dependence curve part △A540 versus time.

[6] = MTT, 72 h, non-transformed cells
[7] = Homo sapiens, A549, 72 h, MTT, 72 h
[8] = Homo sapiens, HCT-116, 72 h, MTT, 72 h
[9] = Homo sapiens, MCF7, 72 h, MTT, 72 h
[10] = Homo sapiens, HEK293, 72 h, MTT, 72 h, non-transformed cells

| Compound | IC50 (A549 (lung carcinoma); MTT, 72 h) [µM] | IC50 ([1]; MTT, 72 h) [µM] | IC50 (MCF7 (breast cancer); MTT, 72 h) [µM] | IC50 ([2]; MTT) [µM] | IC50 [3, 6] [µM] | Work of Respiratory Chain Complexes, % Decrease in OCR of Control, II [4] | Work of Respiratory Chain Complexes, % Decrease in OCR of Control, IV [5] | Mitochondrial Swelling, % of Ca2+-Induced Swelling (rat heart mitochondria) | IC50 (A549 (lung carcinoma); [7]) [µM] | IC50 [1, 8] [µM] | IC50 (MCF7 (breast cancer); [9]) [µM] | IC50 ([2]; Homo sapiens, MTT) [µM] | IC50 [3, 10] [µM] | IC50 (A549 (lung carcinoma); Homo sapiens, A549, 72 h) [µM] | IC50 ([1]; Homo sapiens, HCT-116, 72 h) [µM] | IC50 (MCF7 (breast cancer); Homo sapiens, MCF7, 72 h) [µM] | IC50 ([2]; Homo sapiens) [µM] | IC50 ([3]; Homo sapiens, HEK293, 72 h) [µM] |
| --- | --- | --- | --- | --- | --- | --- | --- | --- | --- | --- | --- | --- | --- | --- | --- | --- | --- | --- |
| COc1cccc2c1C(=O)c1c(O)c3c(c(O)c1C2=O)CC(O)(C(C)=O)CC3OC1CC(NCC2C(=O)OC3CC4(C)CCCC(C)C45OC5C32)C(O)C(C)O1 (stereo not drawn) [Compound 5b] | 1.19 ± 0.02 | 1.3 ± 0.02 | 1.84 ± 0.06 | 0.8 | 18.19 ± 0.18 | — (“—” indicates activity absence for compounds (≤10%) in a particular test) | 21.56 ± 3.66% | — (“—” indicates activity absence for compounds (≤10%) in a particular test) | – | – | – | – | – | – | – | – | – | – |
| C=C1CCC[C@]2(C)C[C@H]3OC(=O)C(=C)[C@H]3CC12 (stereo partly drawn) [Compound 1, isoalantholactone, reference compound] | – | – | – | – | – | – | – | – | 32 ± 3.24 | 11.3 ± 0.27 | 17.5 ± 0.6 | 10.4 ± 0.79 | 74.03 ± 0.51 | – | – | – | – | – |
| C=C1C(=O)OC2CC3(C)CCCC4(C)OC34CC12 (stereo not drawn) [Compound 6, epoxyalloalantholactone, reference compound] | 50.3 ± 1.11 | 9.75 ± 0.57 | 24 ± 0.8 | 8.77 ± 0.01 | 18.5 ± 0.2 | – | – | – | 61.7 ± 2.4 | 10.8 ± 0.18 | 38.6 ± 0.86 | 16.8 ± 0.28 | 29.77 ± 0.05 | – | – | – | – | – |
| C=C1C(=O)O[C@@H]2C[C@@]3(C)CCCC(C)=C3C[C@H]12 [Compound 3, alloalantholactone, reference compound] | – | – | – | – | – | – | – | – | 23.1 ± 1.18 | 34.5 ± 3.51 | 17.9 ± 0.68 | 8.82 ± 0.14 | 35.9 ± 0.48 | – | – | – | – | – |
| C=C1C(=O)O[C@@H]2C[C@@]3(C)CCC[C@H](C)[C@@]34O[C@H]4[C@H]12 [Compound 5, epoxyalantholactolactone, reference compound] | – | – | – | – | – | – | – | – | 21.5 ± 0.75 | 5.12 ± 0.05 | 11.4 ± 0.32 | 4.81 ± 0.12 | 38.1 ± 1.08 | – | – | – | – | – |
| C=C1C(=O)O[C@@H]2C[C@@]3(C)CCC[C@H](C)C3=C[C@H]12 [Compound 2, alantolactone, reference compound] | – | – | – | – | – | – | – | – | 36.7 ± 1.43 | 10.57 ± 0.04 | 13.2 ± 0.93 | 5.48 ± 0.2 | 36.47 ± 0.07 | – | – | – | – | – |
| C=C1CCCC2(C)CC3OC(=O)C(CNC4CC(OC5CC(O)(C(=O)CO)Cc6c(O)c7c(c(O)c65)C(=O)c5c(OC)cccc5C7=O)OC(C)C4O)C3CC12 (stereo not drawn) [Compound 1a] | 2.21 ± 0.06 | 2.81 ± 0.05 | 11.1 ± 0.17 | 2.41 ± 0.03 | 19.8 ± 0.42 | 27.61 ± 5.71% | 24.52 ± 7.61% | — (“—” indicates activity absence for compounds (≤10%) in a particular test) | – | – | – | – | – | – | – | – | – | – |
| C=C1C(=O)O[C@@H]2C[C@@]3(C)CCC=C(C)C3=C[C@H]12 [Compound 8, alanthodiene, reference compound] | – | – | – | – | – | – | – | – | – | – | – | – | – | 59.9 ± 2.26 | 4.99 ± 0.06 | 4.31 ± 0.02 | 4.94 ± 0.09 | 9.07 ± 0.25 |
| COc1cccc2c1C(=O)c1c(O)c3c(c(O)c1C2=O)CC(O)(C(C)=O)CC3OC1CC(NCC2C(=O)OC3CC4(C)CCCC5(C)OC45CC32)C(O)C(C)O1 (mixture of isomers) [Compound 6b] | 0.56 ± 0.01 | 0.26 ± 0.01 | 1.47 ± 0.04 | 0.41 ± 0.02 | 3.68 ± 0.16 | 26.74 ± 4.56% | 41.69 ± 2.13% | — (“—” indicates activity absence for compounds (≤10%) in a particular test) | – | – | – | – | – | – | – | – | – | – |
| C=C1CCCC2(C)CC3OC(=O)C(CNC4CC(OC5CC(O)(C(C)=O)Cc6c(O)c7c(c(O)c65)C(=O)c5c(OC)cccc5C7=O)OC(C)C4O)C3CC12 (stereo not drawn) [Compound 1b] | 0.93 ± 0.06 | 0.28 | 3.95 ± 0.03 | 0.96 ± 0.02 | 3.43 ± 0.04 | — (“—” indicates activity absence for compounds (≤10%) in a particular test) | — (“—” indicates activity absence for compounds (≤10%) in a particular test) | — (“—” indicates activity absence for compounds (≤10%) in a particular test) | – | – | – | – | – | – | – | – | – | – |
| COc1cccc2c1C(=O)c1c(O)c3c(c(O)c1C2=O)C[C@@](O)(C(=O)CO)C[C@@H]3O[C@H]1C[C@H](NC[C@H]2C(=O)O[C@@H]3C[C@@]4(C)CCC[C@H](C)C4=C[C@@H]32)[C@H](O)[C@H](C)O1 [Compound 2a] | 3.29 ± 0.11 | 4.55 ± 0.03 | 26.8 ± 0.65 | 2.67 ± 0.11 | 29.83 ± 0.18 | 39.11 ± 4.05% | 20.45 ± 5.85% | 31.51 ± 8.35% | – | – | – | – | – | – | – | – | – | – |
| COc1cccc2c1C(=O)c1c(O)c3c(c(O)c1C2=O)CC(O)(C(=O)CO)CC3OC1CC(NCC2C(=O)OC3CC4(C)CCCC5(C)OC45CC32)C(O)C(C)O1 (mixture of isomers) [Compound 6a] | 0.88 ± 0.11 | 0.25 ± 0.04 | 2.94 ± 0.02 | 1.18 ± 0.01 | 0.98 ± 0.23 | – | 40.50 ± 4.05% | 54.22 ± 5.49% | – | – | – | – | – | – | – | – | – | – |
| C=C1C(=O)OC2CC3(C)CCCC4(CO4)C3CC12 (stereo not drawn) [Compound 4, epoxy-isoalantholactone, reference compound] | – | – | – | – | – | – | – | – | 83.51 ± 0.26 | 21.4 ± 0.32 | 31.87 ± 0.14 | 18.6 ± 0.21 | 106 ± 4.13 | – | – | – | – | – |
